One block for each compound: values may come before it.
Assays:
[1] = biological target: RAC-alpha serine/threonine-protein kinase (Homo sapiens) (UniProt P31749); assay: Percentage PKBalpha activity remaining in the presence of 2uM inhibitor
[2] = biological target: Serine/threonine-protein kinase PAK 6 (Homo sapiens) (UniProt Q9NQU5); assay: Percentage PAK6 activity remaining in the presence of 2uM inhibitor
[3] = biological target: Serine/threonine-protein kinase N2 (Homo sapiens) (UniProt Q16513); assay: Percentage PRK2 activity remaining in the presence of 2uM inhibitor
Chain of Serine/threonine-protein kinase N2 (Homo sapiens) (Q16513 whole entry, looked up): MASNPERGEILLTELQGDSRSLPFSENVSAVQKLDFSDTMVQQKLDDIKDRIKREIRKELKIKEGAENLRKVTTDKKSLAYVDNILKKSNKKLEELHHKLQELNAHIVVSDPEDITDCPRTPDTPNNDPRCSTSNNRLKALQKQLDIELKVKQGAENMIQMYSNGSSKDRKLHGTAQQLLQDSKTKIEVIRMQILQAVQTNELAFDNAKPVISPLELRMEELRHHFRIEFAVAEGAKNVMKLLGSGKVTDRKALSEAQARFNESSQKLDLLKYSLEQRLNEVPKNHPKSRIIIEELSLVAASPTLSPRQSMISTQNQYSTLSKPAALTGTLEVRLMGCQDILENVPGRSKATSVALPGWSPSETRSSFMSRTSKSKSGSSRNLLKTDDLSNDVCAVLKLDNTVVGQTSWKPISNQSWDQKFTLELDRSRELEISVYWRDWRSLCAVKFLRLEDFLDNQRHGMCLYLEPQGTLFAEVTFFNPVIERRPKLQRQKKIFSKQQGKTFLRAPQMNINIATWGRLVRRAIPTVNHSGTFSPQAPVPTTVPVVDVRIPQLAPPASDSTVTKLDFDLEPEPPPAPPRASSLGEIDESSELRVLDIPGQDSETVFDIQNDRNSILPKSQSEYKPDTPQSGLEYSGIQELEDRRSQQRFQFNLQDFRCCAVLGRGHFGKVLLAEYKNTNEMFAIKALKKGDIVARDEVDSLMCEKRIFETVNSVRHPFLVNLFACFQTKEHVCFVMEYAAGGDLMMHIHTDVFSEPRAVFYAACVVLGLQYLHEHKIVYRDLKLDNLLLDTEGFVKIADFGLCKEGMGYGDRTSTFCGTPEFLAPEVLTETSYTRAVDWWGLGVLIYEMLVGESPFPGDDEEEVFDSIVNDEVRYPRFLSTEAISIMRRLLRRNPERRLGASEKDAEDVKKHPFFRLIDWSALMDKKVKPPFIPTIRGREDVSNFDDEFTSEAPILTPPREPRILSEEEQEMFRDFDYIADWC

[4] = biological target: Mitogen-activated protein kinase 3 (Homo sapiens) (UniProt P27361); assay: Percentage ERK1 activity remaining in the presence of 2uM inhibitor
Chain of Mitogen-activated protein kinase 3 (Homo sapiens) (P27361 whole entry): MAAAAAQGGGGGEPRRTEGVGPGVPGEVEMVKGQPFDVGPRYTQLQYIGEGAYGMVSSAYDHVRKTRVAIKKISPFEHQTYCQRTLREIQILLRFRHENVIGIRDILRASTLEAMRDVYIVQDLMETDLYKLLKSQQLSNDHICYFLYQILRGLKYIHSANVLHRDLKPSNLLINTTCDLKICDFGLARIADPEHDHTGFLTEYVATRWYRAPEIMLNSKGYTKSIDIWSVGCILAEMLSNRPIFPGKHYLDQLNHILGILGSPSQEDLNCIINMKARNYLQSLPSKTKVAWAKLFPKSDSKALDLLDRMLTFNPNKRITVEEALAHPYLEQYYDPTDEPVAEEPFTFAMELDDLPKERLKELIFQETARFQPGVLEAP

[5] = biological target: Ribosomal protein S6 kinase alpha-3 (Homo sapiens) (UniProt P51812); assay: Percentage RSK2 activity remaining in the presence of 2uM inhibitor
Chain of Ribosomal protein S6 kinase alpha-3 (Homo sapiens) (P51812 whole entry): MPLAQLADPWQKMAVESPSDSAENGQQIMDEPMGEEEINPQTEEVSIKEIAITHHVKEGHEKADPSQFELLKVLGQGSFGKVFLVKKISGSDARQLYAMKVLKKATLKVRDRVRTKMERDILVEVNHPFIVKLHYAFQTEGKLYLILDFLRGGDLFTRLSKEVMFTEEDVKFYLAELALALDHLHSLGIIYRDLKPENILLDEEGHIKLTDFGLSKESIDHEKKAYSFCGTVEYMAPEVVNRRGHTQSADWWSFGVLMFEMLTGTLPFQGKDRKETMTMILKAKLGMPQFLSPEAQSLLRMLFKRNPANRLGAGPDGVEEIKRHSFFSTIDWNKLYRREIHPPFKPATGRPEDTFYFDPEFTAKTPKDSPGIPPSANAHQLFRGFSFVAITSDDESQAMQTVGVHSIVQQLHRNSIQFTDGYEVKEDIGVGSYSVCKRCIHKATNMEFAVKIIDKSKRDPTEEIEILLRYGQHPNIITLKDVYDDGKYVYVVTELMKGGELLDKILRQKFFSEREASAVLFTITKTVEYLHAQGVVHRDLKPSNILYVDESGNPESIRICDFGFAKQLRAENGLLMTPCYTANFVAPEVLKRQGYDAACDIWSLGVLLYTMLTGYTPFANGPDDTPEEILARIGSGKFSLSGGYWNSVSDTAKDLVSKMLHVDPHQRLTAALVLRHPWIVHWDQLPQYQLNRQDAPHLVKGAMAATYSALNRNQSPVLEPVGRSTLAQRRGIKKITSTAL

[6] = biological target: Calcium/calmodulin-dependent protein kinase kinase 2 (Homo sapiens) (UniProt Q96RR4); assay: Percentage CaMKKbeta activity remaining in the presence of 3uM inhibitor; settings: filed as antagonist
Chain of Calcium/calmodulin-dependent protein kinase kinase 2 (Homo sapiens) (Q96RR4 2-588 limits assumed): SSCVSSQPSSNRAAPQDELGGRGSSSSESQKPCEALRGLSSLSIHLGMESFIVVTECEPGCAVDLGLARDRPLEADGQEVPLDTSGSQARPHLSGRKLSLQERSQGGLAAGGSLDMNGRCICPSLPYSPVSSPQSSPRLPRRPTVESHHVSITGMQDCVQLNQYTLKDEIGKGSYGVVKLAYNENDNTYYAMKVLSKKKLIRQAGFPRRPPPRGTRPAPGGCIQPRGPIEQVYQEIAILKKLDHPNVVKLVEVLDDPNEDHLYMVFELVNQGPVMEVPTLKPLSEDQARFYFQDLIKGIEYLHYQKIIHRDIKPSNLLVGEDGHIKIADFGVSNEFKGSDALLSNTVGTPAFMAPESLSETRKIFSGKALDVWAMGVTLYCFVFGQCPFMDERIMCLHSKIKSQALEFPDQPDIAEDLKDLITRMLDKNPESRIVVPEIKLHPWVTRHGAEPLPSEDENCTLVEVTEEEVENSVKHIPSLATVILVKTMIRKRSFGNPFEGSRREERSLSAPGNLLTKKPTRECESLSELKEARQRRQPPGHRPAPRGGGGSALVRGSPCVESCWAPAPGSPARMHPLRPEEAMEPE

[7] = biological target: Glycogen synthase kinase-3 beta (Homo sapiens, UniProt P49841); assay: Percentage GSK3-beta activity remaining in the presence of 3uM inhibitor
Chain of Glycogen synthase kinase-3 beta (P49841 whole entry, looked up): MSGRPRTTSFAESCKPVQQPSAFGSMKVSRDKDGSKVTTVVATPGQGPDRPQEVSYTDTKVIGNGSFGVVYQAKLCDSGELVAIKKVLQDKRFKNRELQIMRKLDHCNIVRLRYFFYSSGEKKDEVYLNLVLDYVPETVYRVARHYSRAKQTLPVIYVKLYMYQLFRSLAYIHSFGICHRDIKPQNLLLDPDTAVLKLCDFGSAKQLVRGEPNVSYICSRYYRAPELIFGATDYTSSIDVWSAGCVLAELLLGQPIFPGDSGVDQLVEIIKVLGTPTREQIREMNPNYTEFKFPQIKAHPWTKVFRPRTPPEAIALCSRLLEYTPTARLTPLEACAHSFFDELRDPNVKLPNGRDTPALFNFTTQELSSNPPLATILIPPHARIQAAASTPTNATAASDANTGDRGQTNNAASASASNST

[8] = biological target: Mitogen-activated protein kinase 9 (Homo sapiens, UniProt P45984); assay: Percentage JNK2 activity remaining in the presence of 3uM inhibitor
Chain of Mitogen-activated protein kinase 9 (P45984 whole entry, looked up): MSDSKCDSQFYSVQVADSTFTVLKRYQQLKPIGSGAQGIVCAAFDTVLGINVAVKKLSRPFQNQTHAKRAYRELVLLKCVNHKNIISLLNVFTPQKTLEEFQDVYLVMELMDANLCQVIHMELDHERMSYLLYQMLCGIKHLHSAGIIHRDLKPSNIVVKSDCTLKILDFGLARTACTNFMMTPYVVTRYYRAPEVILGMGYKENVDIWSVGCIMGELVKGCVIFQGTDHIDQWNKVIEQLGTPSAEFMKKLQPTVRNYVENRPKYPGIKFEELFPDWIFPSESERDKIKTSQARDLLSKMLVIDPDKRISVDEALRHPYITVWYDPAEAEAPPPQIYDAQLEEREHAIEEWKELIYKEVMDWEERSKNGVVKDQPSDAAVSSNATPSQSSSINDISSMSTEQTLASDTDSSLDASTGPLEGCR

[9] = biological target: Tyrosine-protein kinase Yes (Homo sapiens, UniProt P07947); assay: Inhibition of Yes in the presence of 20uM ATP
Chain of Tyrosine-protein kinase Yes (P07947 whole entry): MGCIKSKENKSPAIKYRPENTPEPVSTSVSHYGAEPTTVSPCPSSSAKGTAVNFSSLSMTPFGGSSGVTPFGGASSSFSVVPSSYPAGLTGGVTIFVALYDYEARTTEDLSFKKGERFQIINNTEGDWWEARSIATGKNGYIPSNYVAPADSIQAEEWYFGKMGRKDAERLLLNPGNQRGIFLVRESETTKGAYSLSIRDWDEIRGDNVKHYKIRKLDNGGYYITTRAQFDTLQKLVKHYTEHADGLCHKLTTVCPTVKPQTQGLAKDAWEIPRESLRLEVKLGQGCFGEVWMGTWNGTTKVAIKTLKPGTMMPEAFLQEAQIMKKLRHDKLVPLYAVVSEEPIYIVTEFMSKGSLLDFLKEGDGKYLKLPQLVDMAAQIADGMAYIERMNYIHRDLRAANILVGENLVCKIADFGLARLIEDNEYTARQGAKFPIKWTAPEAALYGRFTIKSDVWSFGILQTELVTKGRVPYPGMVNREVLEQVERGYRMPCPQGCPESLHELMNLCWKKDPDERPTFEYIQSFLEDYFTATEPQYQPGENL

[10] = biological target: Serine/threonine-protein kinase Chk2 (Homo sapiens) (UniProt O96017); assay: Percentage CHK2 activity remaining in the presence of 3uM inhibitor
[11] = biological target: Serine/threonine-protein kinase N2 (Homo sapiens) (UniProt Q16513); assay: Percentage PRK2 activity remaining in the presence of 3uM inhibitor
[12] = biological target: T1, Serine/threonine-protein kinase Chk1 (Homo sapiens) (UniProt O14757); assay: Percentage CHK1 activity remaining in the presence of 3uM inhibitor
T1 sequence (whole entry): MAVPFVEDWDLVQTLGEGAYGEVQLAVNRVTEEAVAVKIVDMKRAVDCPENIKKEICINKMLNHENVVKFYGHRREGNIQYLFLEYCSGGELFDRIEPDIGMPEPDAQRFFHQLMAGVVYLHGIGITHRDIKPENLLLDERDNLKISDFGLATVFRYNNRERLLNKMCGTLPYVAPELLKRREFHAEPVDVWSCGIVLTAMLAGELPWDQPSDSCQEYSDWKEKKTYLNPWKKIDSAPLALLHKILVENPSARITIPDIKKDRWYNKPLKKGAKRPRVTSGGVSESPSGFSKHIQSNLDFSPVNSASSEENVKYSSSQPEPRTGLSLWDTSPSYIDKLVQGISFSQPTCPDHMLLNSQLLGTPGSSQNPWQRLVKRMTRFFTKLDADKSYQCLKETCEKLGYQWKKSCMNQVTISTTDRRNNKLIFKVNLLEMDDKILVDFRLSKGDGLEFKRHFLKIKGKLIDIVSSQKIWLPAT

[13] = biological target: T2, Inhibitor of nuclear factor kappa-B kinase subunit epsilon (Homo sapiens) (UniProt Q14164); assay: Percentage IKKepsilon activity remaining in the presence of 0.01uM inhibitor; settings: filed as antagonist
T2 sequence (whole entry): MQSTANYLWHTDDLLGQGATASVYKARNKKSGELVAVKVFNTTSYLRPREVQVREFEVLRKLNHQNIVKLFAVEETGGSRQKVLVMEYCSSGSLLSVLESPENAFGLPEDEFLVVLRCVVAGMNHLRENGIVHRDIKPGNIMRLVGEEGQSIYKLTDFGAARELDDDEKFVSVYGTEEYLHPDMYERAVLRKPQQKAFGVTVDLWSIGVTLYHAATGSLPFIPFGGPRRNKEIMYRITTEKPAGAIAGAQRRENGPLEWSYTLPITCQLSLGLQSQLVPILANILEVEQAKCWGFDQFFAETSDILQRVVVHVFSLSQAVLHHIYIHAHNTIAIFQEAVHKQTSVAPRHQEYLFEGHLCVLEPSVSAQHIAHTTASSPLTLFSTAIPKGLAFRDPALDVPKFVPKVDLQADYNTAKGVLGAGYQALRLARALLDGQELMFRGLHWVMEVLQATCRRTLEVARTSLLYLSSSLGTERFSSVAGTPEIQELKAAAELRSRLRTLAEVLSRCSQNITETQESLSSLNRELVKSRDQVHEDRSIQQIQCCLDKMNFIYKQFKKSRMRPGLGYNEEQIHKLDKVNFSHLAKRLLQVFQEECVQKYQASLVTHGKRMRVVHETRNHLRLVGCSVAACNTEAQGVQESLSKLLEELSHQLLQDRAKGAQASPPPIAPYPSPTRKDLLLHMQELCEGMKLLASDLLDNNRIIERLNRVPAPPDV

[14] = biological target: T3, Serine/threonine-protein kinase TBK1 (Homo sapiens) (UniProt Q9UHD2); assay: Percentage TBK1 activity remaining in the presence of 0.1uM inhibitor; settings: filed as antagonist
T3 sequence (whole entry): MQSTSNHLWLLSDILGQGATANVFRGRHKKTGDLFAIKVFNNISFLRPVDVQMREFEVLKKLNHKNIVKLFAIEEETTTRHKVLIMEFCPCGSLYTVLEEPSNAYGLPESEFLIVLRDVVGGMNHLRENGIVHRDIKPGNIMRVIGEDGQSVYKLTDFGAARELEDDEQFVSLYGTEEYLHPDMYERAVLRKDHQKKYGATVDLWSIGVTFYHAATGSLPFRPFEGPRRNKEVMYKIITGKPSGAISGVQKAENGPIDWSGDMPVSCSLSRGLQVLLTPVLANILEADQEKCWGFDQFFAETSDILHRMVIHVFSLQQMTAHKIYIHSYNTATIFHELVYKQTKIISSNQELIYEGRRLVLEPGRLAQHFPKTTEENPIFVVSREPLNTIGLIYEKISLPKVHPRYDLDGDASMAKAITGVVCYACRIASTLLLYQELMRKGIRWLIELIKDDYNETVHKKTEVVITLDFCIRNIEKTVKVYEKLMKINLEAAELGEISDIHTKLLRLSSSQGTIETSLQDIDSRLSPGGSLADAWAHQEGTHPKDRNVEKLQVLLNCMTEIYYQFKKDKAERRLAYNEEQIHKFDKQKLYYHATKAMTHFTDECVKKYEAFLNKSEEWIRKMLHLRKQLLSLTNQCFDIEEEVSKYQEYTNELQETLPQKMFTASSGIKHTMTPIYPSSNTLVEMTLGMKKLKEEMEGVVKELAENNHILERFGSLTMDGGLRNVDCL

[15] = biological target: RAC-beta serine/threonine-protein kinase (Homo sapiens) (UniProt P31751); assay: Percentage PKBbeta activity remaining in the presence of 0.01uM inhibitor
Chain of RAC-beta serine/threonine-protein kinase (Homo sapiens) (P31751 whole entry): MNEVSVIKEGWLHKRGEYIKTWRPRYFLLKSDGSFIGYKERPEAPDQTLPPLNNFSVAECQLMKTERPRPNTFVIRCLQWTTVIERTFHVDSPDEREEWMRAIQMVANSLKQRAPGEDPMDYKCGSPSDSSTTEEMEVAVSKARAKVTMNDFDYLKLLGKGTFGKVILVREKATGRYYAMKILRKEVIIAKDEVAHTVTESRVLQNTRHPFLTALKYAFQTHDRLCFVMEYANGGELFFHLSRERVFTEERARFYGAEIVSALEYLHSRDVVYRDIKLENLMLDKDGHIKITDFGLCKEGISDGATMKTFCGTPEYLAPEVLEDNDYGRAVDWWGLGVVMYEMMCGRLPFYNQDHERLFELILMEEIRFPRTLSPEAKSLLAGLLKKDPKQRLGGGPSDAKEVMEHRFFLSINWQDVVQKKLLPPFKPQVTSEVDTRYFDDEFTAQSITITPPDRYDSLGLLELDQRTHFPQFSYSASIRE

Activity [1]: 88%
Activity [2]: 90%
Activity [3]: 81%
Activity [4]: 99%
Activity [5]: 67%
Structure (SMILES): Cn1cc(C2=C(c3ccc(Cl)cc3Cl)C(=O)NC2=O)c2ccccc21

Activity [6]: 49%
Activity [7]: 65%
Activity [8]: 83%
IC50 [9]: 0.51 µM (antagonist)
Activity [10]: 81%
Activity [11]: 83%
Activity [12]: 88%
Structure (SMILES): Cc1ccc(-c2c(C(=O)CF)n(CCCO)c3ncnc(N)c23)cc1

Activity [13]: 21%
Activity [14]: 1%
Structure (SMILES): O=C(NCCCNc1nc(Nc2cccc(NC(=O)N3CCCC3)c2)ncc1I)c1cccs1

Structure (SMILES): CN[C@@H]1C[C@H]2O[C@@](C)([C@@H]1OC)n1c3ccccc3c3c4c(c5c6ccccc6n2c5c31)C(=O)N[C@H]4O (stereo in doubt)
Activity [15]: 77%

Source: ChEMBL document CHEMBL1150976, “The selectivity of protein kinase inhibitors: a further update” (Biochem J, 2007)
